This is an account of results in PMC7873226, “Molecular mechanism and structural basis of small-molecule modulation of the gating of acid-sensing ion channel 1” (Communications Biology, 2021).

Numbering of substitutions follows the chain as printed. Where two headings read alike, the source gives them in different places.

The target in one assay is T1, rat ASIC1a (Rattus norvegicus, UniProt P55926).
T1 construct: expressed in transfected cells
T1 sequence (P55926 1-526): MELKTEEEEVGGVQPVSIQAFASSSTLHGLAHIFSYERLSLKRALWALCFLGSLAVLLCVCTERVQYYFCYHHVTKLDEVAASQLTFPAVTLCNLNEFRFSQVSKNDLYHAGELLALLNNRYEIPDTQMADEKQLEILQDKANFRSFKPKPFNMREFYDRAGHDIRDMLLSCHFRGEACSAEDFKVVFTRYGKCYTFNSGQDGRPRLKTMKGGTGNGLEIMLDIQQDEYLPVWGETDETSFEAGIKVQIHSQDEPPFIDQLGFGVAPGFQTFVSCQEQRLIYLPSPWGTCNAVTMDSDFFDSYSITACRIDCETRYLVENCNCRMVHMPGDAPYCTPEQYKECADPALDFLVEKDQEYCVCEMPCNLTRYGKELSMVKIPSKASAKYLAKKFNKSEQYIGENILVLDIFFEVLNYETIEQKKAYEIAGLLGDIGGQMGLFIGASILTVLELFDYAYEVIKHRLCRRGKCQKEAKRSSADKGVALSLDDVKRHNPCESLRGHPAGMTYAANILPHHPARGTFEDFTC
As to the kind of experiment: Whole-cell patch clamp: inhibition of acid-induced current in CHO cells stably expressing rat ASIC1a. Format: cell-based. As for the experimental part:
(§1) Chinese Hamster Ovary (CHO) cells stably expressing rat ASIC1a were cultured in Ham’s F12, supplemented with 10% FBS, 1% penicillin–streptomycin and 500 µg/mL G418 and incubated at 37 °C with 5% CO2. Transient transfections of rASIC1a and cASIC1 wild-type or mutant channels in CHO cells were performed with Lipofectamine 3000 (Thermo Fisher Scientific) according to the manufacturer’s recommendations. The green fluorescent protein (GFP) cDNA (at 1/10 the amount of channel cDNA) was co-transfected with channel cDNA to aid the identification of transfected cells under the microscope in patch clamp experiments. All cDNAs were sequence verified.
Cells were freshly dissociated with CellStripper (Corning) and dispersed in a chamber on the stage of an inverted microscope. Upon formation of the whole-cell conformation, the cell was lifted from the bottom of the chamber and placed at the tip of a tubing perfusing an extracellular solution containing (in mM): 149 NaCl, 2 CaCl2, 4 KCl, 1 MgCl2, 5 glucose, 10 HEPES, pH 7.4, 310 mOsm/L. Extracellular solutions at more basic or acidic pHs were made by titrating the above pH 7.4 solution with NaOH or HCl (5 mM MES was added to solutions at pH 6.0 and lower). Pipette electrodes were filled with an intracellular solution containing (in mM): 135 KCl, 4 MgATP, 0.3 Na2GTP, 10 EGTA, and 20 HEPES, pH 7.2, 290 mOsm/L.
All recordings were performed at room temperature using an Axopatch 200B amplifier and pClamp 11 software (Molecular Devices). Currents were measured by whole-cell patch clamp, digitized at 10 kHz and lowpass filtered at 2 kHz. Series resistance was 75% compensated. Responses were elicited by rapid perfusion of acidic solutions using the SF-77B Fast-Step Perfusion device (Warner Instruments) for 40 ms once every 30 s (unless indicated otherwise) and recorded till steady state was reached. The holding potential was 0 mV unless indicated otherwise.
Baseline values (i.e., current amplitudes at the conditioning pH) were subtracted to obtain responses evoked by the test pH. Responses were normalized for each cell before averaging (see figure legends for more detail on normalization for each type of experiment). Concentration–response data were fitted to a logistic function of the form: R = (A1–A2)/(1 + (C/C0)^h)+A2, where R is the normalized response, C is either pH or compound concentration, C0 is the pH/concentration at which half-maximal response occurs (pH50 or IC50), h is the Hill coefficient, and A1 and A2 are constants. Kinetic parameters were obtained by fitting the data with either a single or double exponential function. Fitted data are shown as solid, dashed, or dotted curves.
(Patch clamp records ionic current or voltage across a cell membrane.)

Another assay addresses T2, rASIC1a F98A (Rattus norvegicus, UniProt P55926, F98A).
T2 construct: expressed in transfected cells; host or cells: CHO cells, transient transfection (GFP cDNA co-transfected separately)
T2 sequence (P55926 1-526 F98A): T1 sequence (P55926 1-526) with F98A
The experiment in a line: Inhibition of pH 6.0-induced current of mutant channel F98A. The assay is classed as cell-based. As to the method: as §1
Cells were freshly dissociated with CellStripper (Corning) and dispersed in a chamber on the stage of an inverted microscope. […]
All recordings were performed at room temperature using an Axopatch 200B amplifier and pClamp 11 software (Molecular Devices). Currents were measured by whole-cell patch clamp, digitized at 10 kHz and lowpass filtered at 2 kHz. […] Responses were elicited by rapid perfusion of acidic solutions using the SF-77B Fast-Step Perfusion device (Warner Instruments) for 40 ms once every 30 s (unless indicated otherwise) and recorded till steady state was reached. […]

The mark [1] stands for this setting: CHO, pH 6, pH6.0, 10 nM, read-out: current inhibition, mean (source data Fig. 1e).
[2] abbreviates: CHO, pH 6, pH6.0, 30 nM, read-out: current inhibition, mean (source data Fig. 1e).
[3] abbreviates: CHO, pH 6, pH6.0, 100 nM, read-out: current inhibition, mean (source data Fig. 1e).
Setting [4] is: CHO, pH 6, pH6.0, 300 nM, read-out: current inhibition, mean (source data Fig. 1e).
[5] abbreviates: CHO, pH 6, pH6.0, 1000 nM, read-out: current inhibition, mean (source data Fig. 1e).
Setting [6] is: CHO, pH 7.1, pH7.1, 3 nM, read-out: current inhibition, mean (source data Fig. 1e).
[7] abbreviates: CHO, pH 7.1, pH7.1, 10 nM, read-out: current inhibition, mean (source data Fig. 1e).
Setting [8] is: CHO, pH 7.1, pH7.1, 30 nM, read-out: current inhibition, mean (source data Fig. 1e).
The mark [9] stands for this setting: CHO, pH 7.1, pH7.1, 100 nM, read-out: current inhibition, mean (source data Fig. 1e).
Where [10] appears, read: test pH 6.0, holding pH 8.2, WT.

In the case of `Cc1cc(N2CC(Oc3cc(F)c4c(N)n[nH]c4c3)C2)c(F)cn1` [JNJ-67869386], the inhibition (as a rule, the drop in the measured response relative to a control, in per cent) at 0.01 µM worked out at 8% on rat ASIC1a (CHO, pH 5, pH5.0, 10 nM, read-out: current inhibition, mean (source data Fig. 1e)); 17.9% on rat ASIC1a (setting [1]); 75.6 ± 6.9% at rat ASIC1a (CHO, pH 6.8, 10 nM, 0 mV, read-out: inhibition of pH 6.8-induced current); 78.2 ± 5% on rat ASIC1a (CHO, pH 6.8, 10 nM, −80 mV, read-out: inhibition of pH 6.8-induced current); 62.8% at rat ASIC1a (CHO, pH 6.8, pH6.8, 10 nM, read-out: current inhibition, mean (source data Fig. 1e)); 78.1% on rat ASIC1a (setting [7]). Besides, the inhibition at 0.03 µM at rat ASIC1a (CHO, pH 5, pH5.0, 30 nM, read-out: current inhibition, mean (source data Fig. 1e)) is 15.3%; on rat ASIC1a (setting [2]) it was 38.3%; at rat ASIC1a (CHO, pH 6.8, pH6.8, 30 nM, read-out: current inhibition, mean (source data Fig. 1e)) it was 89.8%; on rat ASIC1a (setting [8]), 96.5%. Besides, the inhibition at 0.1 µM at rat ASIC1a (CHO, pH 5, pH5.0, 100 nM, read-out: current inhibition, mean (source data Fig. 1e)) stood at 20.5%; at rat ASIC1a (setting [3]) it was 61.3%; on rat ASIC1a (CHO, pH 6.8, pH6.8, 100 nM, read-out: current inhibition, mean (source data Fig. 1e)) it was 97.6%; at rat ASIC1a (setting [9]) it was 99.8%. In addition, the inhibition at 0.3 µM on rat ASIC1a (CHO, pH 5, pH5.0, 300 nM, read-out: current inhibition, mean (source data Fig. 1e)) was found to be 25.2%; on rat ASIC1a (setting [4]), 68.9%. The inhibition at 1 µM on rat ASIC1a (CHO, pH 5, pH5.0, 1000 nM, read-out: current inhibition, mean (source data Fig. 1e)) was 28.4%; on rat ASIC1a (setting [5]), 71.7%. Also, the inhibition at 3 µM at rat ASIC1a (CHO, pH 6, pH6.0, 3000 nM, read-out: current inhibition, mean (source data Fig. 1e)) was determined as 79.2%. On rat ASIC1a (CHO, pH 6.8, pH6.8, 1 nM, read-out: current inhibition, mean (source data Fig. 1e)), the inhibition at 0.001 µM is 15.3%. Besides, the inhibition at 0.003 µM at rat ASIC1a (CHO, pH 6.8, pH6.8, 3 nM, read-out: current inhibition, mean (source data Fig. 1e)) came to 33.9%; on rat ASIC1a (setting [6]), 42.7%. Also, the IC50 (in general, the concentration that gives 50% inhibition) was determined as 34.4 ± 7.6 nM against rat ASIC1a (test pH 5.0, holding pH 8.2); 28.9 ± 3.6 nM on rat ASIC1a (setting [10]); 5.5 ± 0.4 nM against rat ASIC1a (test pH 6.8, holding pH 8.2); 3.8 ± 0.2 nM at rat ASIC1a (test pH 7.1, holding pH 8.2); 626 ± 11 nM on rASIC1a F98A. In addition, the max %inhibition at rat ASIC1a (test pH 5.0, holding pH 8.2) came out at 30.4 ± 1.8%; at rat ASIC1a (test pH 6.0, holding pH 8.2), 76.5 ± 2.2%; at rat ASIC1a (test pH 6.8, holding pH 8.2), 100%; on rat ASIC1a (test pH 7.1, holding pH 8.2), 100%.

`COc1ccc(Oc2ccc(-c3nc4cc(C(=N)N)ccc4[nH]3)cc2)cc1OC` [JNJ-799760]: the inhibition at 0.01 µM at rat ASIC1a (setting [1]) was found to be 23.5%; at rat ASIC1a (setting [7]), 74.6%. Further, the results for the inhibition at 0.03 µM on rat ASIC1a (setting [2]) and at rat ASIC1a (setting [8]) were 45.7% and 94.4%, respectively. In addition, the inhibition at 0.1 µM was determined as 66.3% at rat ASIC1a (setting [3]) and 99.1% on rat ASIC1a (setting [9]). In addition, the inhibition at 0.3 µM on rat ASIC1a (setting [4]) was found to be 78.3%. Also, the inhibition at 1 µM on rat ASIC1a (setting [5]) is 80.7%. For the same compound, on rat ASIC1a (setting [6]), the inhibition at 0.003 µM worked out at 45.1%. Moreover, the max %inhibition at rat ASIC1a (test pH 6.0, holding pH 8.2) came out at 83.1 ± 1.2%; at rat ASIC1a (test pH 7.1, holding pH 8.2) it was 100%. The 50% inhibitory concentration (IC50) at rat ASIC1a (setting [10]) stood at 24.9 ± 1.3 nM; at rat ASIC1a (test pH 7.1, holding pH 8.2) it was 3.6 ± 0.2 nM; against rASIC1a F98A it was 726 ± 356 nM.
